Measurements reported in ChEMBL document CHEMBL3885861, “Open TG-GATES”.

Species on record: Rattus norvegicus
Experiment: Open TG-GATES - Regimen: Daily Repeat
Assay type: toxicity, organism-based, Sprague-Dawley
Set-up: regimen Daily Repeat, gender Male, age 6 weeks
Details: in vivo, po, route gavage; for APTT / Bas / Eos / Fbg / Hb / Ht / Lym / MCH / MCHC / MCV / Mono / Neu / PT / Plat / RBC / Ret / WBC: tissue Blood; for KIDNEY_L / KIDNEY_R / KIDNEY_TOTAL: tissue Kidney; for LIVER: tissue Liver; for A/G / ALP / ALT / AST / BUN / CRE / Ca / Cl / DBIL / GLC / IP / K / LDH / Na / PL / RALB / TBIL / TC / TG / TP / gamma-GTP: tissue Plasma
[1] = 300 mg/kg, 72 h, dose level Middle, time 3 day
[2] = 300 mg/kg, […], dose level Middle, time 7 day
[3] = 300 mg/kg, […], dose level Middle, time 14 day
[4] = 300 mg/kg, […], dose level Middle, time 28 day
[5] = 1000 mg/kg, 72 h, dose level High, time 3 day
[6] = 1000 mg/kg, […], dose level High, time 7 day
[7] = 1000 mg/kg, […], dose level High, time 14 day
[8] = 1000 mg/kg, […], dose level High, time 28 day

COc1ccc(Cl)cc1C(=O)NCCc1ccc(S(=O)(=O)NC(=O)NC2CCCCC2)cc1 [GLYBURIDE]
TERMINAL_BW [1]: 227.7 g
APTT [1]: 19.4 s
Bas [1]: 0%
Eos [1]: 1%
Fbg [1]: 222.4 mg/dL
Hb [1]: 13.3 g/dL
Ht [1]: 39.4%
Lym [1]: 79.6%
MCH [1]: 21.3 pg
MCHC [1]: 33.7%
MCV [1]: 63.2 fL
Mono [1]: 2.8%
Neu [1]: 16.4%
PT [1]: 12.4 s
Plat [1]: 120.5 x10_4/uL
RBC [1]: 624 x10_4/ul
Ret [1]: 5.4%
WBC [1]: 97.9 x10_2/uL
KIDNEY_L [1]: 1 g
KIDNEY_R [1]: 1 g
KIDNEY_TOTAL [1]: 2.1 g
LIVER [1]: 10.5 g
A/G [1]: 1.5
ALP [1]: 912.2 IU/L
ALT [1]: 40.4 IU/L
AST [1]: 65.4 IU/L
BUN [1]: 14.2 mg/dL
CRE [1]: 0.4 mg/dL
Ca [1]: 10.7 mg/dL
Cl [1]: 103 meq/L
DBIL [1]: 0.088 mg/dL
GLC [1]: 194.6 mg/dL
IP [1]: 7.1 mg/dL
K [1]: 3.8 meq/L
LDH [1]: 190.4 IU/L
Na [1]: 140.6 meq/L
PL [1]: 135.6 mg/dL
RALB [1]: 3.3 g/dL
TBIL [1]: 0.1 mg/dL
TC [1]: 72 mg/dL
TG [1]: 71.4 mg/dL
TP [1]: 5.4 g/dL
gamma-GTP [1]: 0.6 IU/L
TERMINAL_BW [2]: 262.8 g
TERMINAL_BW [3]: 322.5 g
TERMINAL_BW [4]: 400.8 g
APTT [2]: 20.6 s
Bas [2]: 0%
Eos [2]: 1%
Fbg [2]: 220.6 mg/dL
Hb [2]: 13.6 g/dL
Ht [2]: 40%
Lym [2]: 78.4%
MCH [2]: 20.6 pg
MCHC [2]: 34%
MCV [2]: 60.5 fL
Mono [2]: 2.4%
Neu [2]: 17.8%
PT [2]: 12.5 s
Plat [2]: 128.7 x10_4/uL
RBC [2]: 661.2 x10_4/ul
Ret [2]: 5.2%
WBC [2]: 99.5 x10_2/uL
APTT [3]: 21.4 s
Bas [3]: 0%
Eos [3]: 1%
Fbg [3]: 226.6 mg/dL
Hb [3]: 14.1 g/dL
Ht [3]: 41.1%
Lym [3]: 81.2%
MCH [3]: 20.5 pg
MCHC [3]: 34.4%
MCV [3]: 59.6 fL
Mono [3]: 3.2%
Neu [3]: 13.8%
PT [3]: 12.3 s
Plat [3]: 124.7 x10_4/uL
RBC [3]: 689.4 x10_4/ul
Ret [3]: 4.5%
WBC [3]: 105.4 x10_2/uL
APTT [4]: 21.1 s
Bas [4]: 0%
Eos [4]: 1%
Fbg [4]: 217.4 mg/dL
Hb [4]: 15 g/dL
Ht [4]: 42.8%
Lym [4]: 81.6%
MCH [4]: 19.6 pg
MCHC [4]: 34.9%
MCV [4]: 56.1 fL
Mono [4]: 2.2%
Neu [4]: 14.8%
PT [4]: 12.5 s
Plat [4]: 110.1 x10_4/uL
RBC [4]: 762.8 x10_4/ul
Ret [4]: 2.6%
WBC [4]: 109.6 x10_2/uL
KIDNEY_L [2]: 1.1 g
KIDNEY_R [2]: 1.1 g
KIDNEY_TOTAL [2]: 2.2 g
KIDNEY_L [3]: 1.2 g
KIDNEY_R [3]: 1.2 g
KIDNEY_TOTAL [3]: 2.5 g
KIDNEY_L [4]: 1.4 g
KIDNEY_R [4]: 1.3 g
KIDNEY_TOTAL [4]: 2.7 g
LIVER [2]: 12.1 g
LIVER [3]: 14 g
LIVER [4]: 16.8 g
A/G [2]: 1.5
ALP [2]: 861.6 IU/L
ALT [2]: 33.4 IU/L
AST [2]: 59.2 IU/L
BUN [2]: 14.6 mg/dL
CRE [2]: 0.4 mg/dL
Ca [2]: 10.8 mg/dL
Cl [2]: 102.4 meq/L
DBIL [2]: 0.084 mg/dL
GLC [2]: 195.6 mg/dL
IP [2]: 6.8 mg/dL
K [2]: 3.8 meq/L
LDH [2]: 163.8 IU/L
Na [2]: 140.6 meq/L
PL [2]: 140.6 mg/dL
RALB [2]: 3.3 g/dL
TBIL [2]: 0.1 mg/dL
TC [2]: 67.8 mg/dL
TG [2]: 87.6 mg/dL
TP [2]: 5.6 g/dL
gamma-GTP [2]: 1.2 IU/L
A/G [3]: 1.4
ALP [3]: 818.6 IU/L
ALT [3]: 40 IU/L
AST [3]: 64.2 IU/L
BUN [3]: 15.8 mg/dL
CRE [3]: 0.5 mg/dL
Ca [3]: 10.7 mg/dL
Cl [3]: 102.4 meq/L
DBIL [3]: 0.1 mg/dL
GLC [3]: 178 mg/dL
IP [3]: 6.8 mg/dL
K [3]: 4 meq/L
LDH [3]: 162.8 IU/L
Na [3]: 140.4 meq/L
PL [3]: 166.8 mg/dL
RALB [3]: 3.5 g/dL
TBIL [3]: 0.2 mg/dL
TC [3]: 80.8 mg/dL
TG [3]: 125 mg/dL
TP [3]: 6 g/dL
gamma-GTP [3]: 1.6 IU/L
A/G [4]: 1.3
ALP [4]: 681.2 IU/L
ALT [4]: 35.4 IU/L
AST [4]: 62.2 IU/L
BUN [4]: 15.4 mg/dL
CRE [4]: 0.5 mg/dL
Ca [4]: 10.5 mg/dL
Cl [4]: 104.4 meq/L
DBIL [4]: 0.1 mg/dL
GLC [4]: 213 mg/dL
IP [4]: 6.2 mg/dL
K [4]: 3.7 meq/L
LDH [4]: 150.8 IU/L
Na [4]: 142 meq/L
PL [4]: 140.6 mg/dL
RALB [4]: 3.4 g/dL
TBIL [4]: 0.2 mg/dL
TC [4]: 67.2 mg/dL
TG [4]: 114.4 mg/dL
TP [4]: 5.9 g/dL
gamma-GTP [4]: 0.6 IU/L
TERMINAL_BW [5]: 228 g
APTT [5]: 20.6 s
Bas [5]: 0%
Eos [5]: 1.2%
Fbg [5]: 221.4 mg/dL
Hb [5]: 13.5 g/dL
Ht [5]: 40.2%
Lym [5]: 79.2%
MCH [5]: 21.1 pg
MCHC [5]: 33.6%
MCV [5]: 62.9 fL
Mono [5]: 2.4%
Neu [5]: 16.4%
PT [5]: 12.3 s
Plat [5]: 120.1 x10_4/uL
RBC [5]: 640 x10_4/ul
Ret [5]: 5.2%
WBC [5]: 112.9 x10_2/uL
KIDNEY_L [5]: 1 g
KIDNEY_R [5]: 1 g
KIDNEY_TOTAL [5]: 2 g
LIVER [5]: 11.1 g
A/G [5]: 1.6
ALP [5]: 893.4 IU/L
ALT [5]: 36.4 IU/L
AST [5]: 61.4 IU/L
BUN [5]: 15.2 mg/dL
CRE [5]: 0.4 mg/dL
Ca [5]: 10.8 mg/dL
Cl [5]: 102.8 meq/L
DBIL [5]: 0.094 mg/dL
GLC [5]: 200.2 mg/dL
IP [5]: 6.7 mg/dL
K [5]: 4 meq/L
LDH [5]: 179.2 IU/L
Na [5]: 140.6 meq/L
PL [5]: 150.2 mg/dL
RALB [5]: 3.4 g/dL
TBIL [5]: 0.1 mg/dL
TC [5]: 74.4 mg/dL
TG [5]: 93.4 mg/dL
TP [5]: 5.5 g/dL
gamma-GTP [5]: 1 IU/L
TERMINAL_BW [6]: 260.9 g
TERMINAL_BW [7]: 308.1 g
TERMINAL_BW [8]: 392.8 g
APTT [6]: 19.8 s
Bas [6]: 0.2%
Eos [6]: 1%
Fbg [6]: 220 mg/dL
Hb [6]: 13.6 g/dL
Ht [6]: 40%
Lym [6]: 81%
MCH [6]: 20.7 pg
MCHC [6]: 34%
MCV [6]: 60.8 fL
Mono [6]: 2.2%
Neu [6]: 15.2%
PT [6]: 12.4 s
Plat [6]: 129 x10_4/uL
RBC [6]: 658.4 x10_4/ul
Ret [6]: 5.2%
WBC [6]: 109.6 x10_2/uL
APTT [7]: 20.5 s
Bas [7]: 0%
Eos [7]: 0.8%
Fbg [7]: 224.4 mg/dL
Hb [7]: 14 g/dL
Ht [7]: 40.6%
Lym [7]: 81%
MCH [7]: 20.7 pg
MCHC [7]: 34.6%
MCV [7]: 59.9 fL
Mono [7]: 2.4%
Neu [7]: 15.2%
PT [7]: 12.2 s
Plat [7]: 116.7 x10_4/uL
RBC [7]: 678.6 x10_4/ul
Ret [7]: 4.5%
WBC [7]: 129.3 x10_2/uL
APTT [8]: 20.5 s
Bas [8]: 0%
Eos [8]: 1%
Fbg [8]: 218.2 mg/dL
Hb [8]: 14.9 g/dL
Ht [8]: 42.8%
Lym [8]: 81.4%
MCH [8]: 19.5 pg
MCHC [8]: 34.8%
MCV [8]: 56 fL
Mono [8]: 2.4%
Neu [8]: 14.4%
PT [8]: 12.3 s
Plat [8]: 99 x10_4/uL
RBC [8]: 766.2 x10_4/ul
Ret [8]: 2.7%
WBC [8]: 123.6 x10_2/uL
KIDNEY_L [6]: 1.1 g
KIDNEY_R [6]: 1.1 g
KIDNEY_TOTAL [6]: 2.2 g
KIDNEY_L [7]: 1.2 g
KIDNEY_R [7]: 1.2 g
KIDNEY_TOTAL [7]: 2.4 g
KIDNEY_L [8]: 1.3 g
KIDNEY_R [8]: 1.4 g
KIDNEY_TOTAL [8]: 2.7 g
LIVER [6]: 12.5 g
LIVER [7]: 13.8 g
LIVER [8]: 16 g
A/G [6]: 1.4
ALP [6]: 962.2 IU/L
ALT [6]: 35 IU/L
AST [6]: 61.6 IU/L
BUN [6]: 16.2 mg/dL
CRE [6]: 0.4 mg/dL
Ca [6]: 10.8 mg/dL
Cl [6]: 102.6 meq/L
DBIL [6]: 0.1 mg/dL
GLC [6]: 212 mg/dL
IP [6]: 6.9 mg/dL
K [6]: 3.8 meq/L
LDH [6]: 169.4 IU/L
Na [6]: 140.8 meq/L
PL [6]: 151.4 mg/dL
RALB [6]: 3.3 g/dL
TBIL [6]: 0.2 mg/dL
TC [6]: 73 mg/dL
TG [6]: 123.6 mg/dL
TP [6]: 5.6 g/dL
gamma-GTP [6]: 1.4 IU/L
A/G [7]: 1.5
ALP [7]: 801.6 IU/L
ALT [7]: 33.4 IU/L
AST [7]: 56.8 IU/L
BUN [7]: 14.6 mg/dL
CRE [7]: 0.5 mg/dL
Ca [7]: 10.6 mg/dL
Cl [7]: 102.8 meq/L
DBIL [7]: 0.1 mg/dL
GLC [7]: 174.6 mg/dL
IP [7]: 6.7 mg/dL
K [7]: 3.7 meq/L
LDH [7]: 115 IU/L
Na [7]: 141 meq/L
PL [7]: 151 mg/dL
RALB [7]: 3.6 g/dL
TBIL [7]: 0.2 mg/dL
TC [7]: 72.4 mg/dL
TG [7]: 102.2 mg/dL
TP [7]: 5.9 g/dL
gamma-GTP [7]: 1.4 IU/L
A/G [8]: 1.4
ALP [8]: 552.4 IU/L
ALT [8]: 31.6 IU/L
AST [8]: 55.2 IU/L
BUN [8]: 16 mg/dL
CRE [8]: 0.5 mg/dL
Ca [8]: 10.3 mg/dL
Cl [8]: 103 meq/L
DBIL [8]: 0.098 mg/dL
GLC [8]: 230.2 mg/dL
IP [8]: 6.5 mg/dL
K [8]: 4.2 meq/L
LDH [8]: 131 IU/L
Na [8]: 141 meq/L
PL [8]: 153.2 mg/dL
RALB [8]: 3.5 g/dL
TBIL [8]: 0.2 mg/dL
TC [8]: 75.6 mg/dL
TG [8]: 102 mg/dL
TP [8]: 6 g/dL
gamma-GTP [8]: 0.8 IU/L
